Active and inactive are the calls of the source. No cut-off for these calls is given here.
target: T1, Replication protein A 70 kDa DNA-binding subunit (Homo sapiens, UniProt P27694); assay: Binding affinity to human RPA70N expressed in Escherichia coli BL21 (DE3) assessed as inhibition of interaction with FITC-Ahx-DFTADDLEELDTLAS-NH2 after 1 hr by fluorescence polarization anisotropy assay
T1 sequence (P27694 whole entry): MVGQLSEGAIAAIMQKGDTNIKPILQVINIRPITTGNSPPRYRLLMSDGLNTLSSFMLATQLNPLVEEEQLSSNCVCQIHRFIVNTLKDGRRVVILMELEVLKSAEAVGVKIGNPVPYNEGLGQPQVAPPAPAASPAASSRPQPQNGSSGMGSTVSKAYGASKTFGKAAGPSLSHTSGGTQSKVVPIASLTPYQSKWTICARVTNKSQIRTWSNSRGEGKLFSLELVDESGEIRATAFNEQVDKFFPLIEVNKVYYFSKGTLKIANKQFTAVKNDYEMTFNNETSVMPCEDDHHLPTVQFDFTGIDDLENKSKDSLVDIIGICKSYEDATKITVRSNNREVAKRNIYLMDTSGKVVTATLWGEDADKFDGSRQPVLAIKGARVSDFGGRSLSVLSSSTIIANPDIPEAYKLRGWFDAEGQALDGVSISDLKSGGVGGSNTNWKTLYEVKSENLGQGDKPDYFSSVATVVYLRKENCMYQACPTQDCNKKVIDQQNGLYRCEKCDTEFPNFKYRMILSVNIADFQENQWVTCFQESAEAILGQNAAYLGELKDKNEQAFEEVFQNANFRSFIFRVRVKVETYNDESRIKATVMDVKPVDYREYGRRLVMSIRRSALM

Molecule `CC(C)C1=C[C@]23CC[C@@H]4[C@](C)(CCC[C@@]4(C)C(=O)O)[C@H]2C[C@@H]1[C@@H](C(=O)O)[C@@H]3C(=O)O` has a Kd of 18.3 µM.

species: Homo sapiens; assay: Inhibition of full length RPA (unknown origin) binding to ssDNA up to 100 uM preincubated for 5 mins prior to substrate addition measured after 30 mins by EMSA

With `O=C(O)c1sc2cc(-n3c(S)nnc3-c3ccc(Br)c(Cl)c3)ccc2c1Cl` the inhibition was “inactive”.
With `O=C(O)c1sc2cc(-n3c(S)nnc3-c3ccc(Cl)c(Cl)c3)ccc2c1Cl` the inhibition was “inactive”.

target: T1, Replication protein A 70 kDa DNA-binding subunit; assay: Binding affinity to human RPA (1 to 422) containing RPA70N and RPA70NAB assessed as inhibition of interaction with FITC-Ahx-DFTADDLEELDTLAS-NH2 after 1 hr by fluorescence polarization anisotropy assay

Compared with `O=C(O)c1sc2cc(-n3c(S)nnc3-c3ccc(Br)c(Cl)c3)ccc2c1Cl`, `O=C(O)c1sc2cc(-n3c(S)nnc3-c3ccc(Cl)c(Cl)c3)ccc2c1Cl` is 1.7-fold higher in Kd: 10 µM for the first, 17 µM for the second. The first binds more tightly here.

target: T1, Replication protein A 70 kDa DNA-binding subunit; assay: Binding affinity to human RPA70N assessed as inhibition of interaction with FITC-Ahx-DFTADDLEELDTLAS-NH2 after 1 hr by fluorescence polarization anisotropy assay

Going from `Cc1cccc(-c2n[nH]c(=S)n2-c2ccc3cc(C(=O)O)sc3c2)c1` to `O=C(O)c1cc2ccc(-n3c(-c4cccc(Br)c4)n[nH]c3=S)cc2s1`, the Kd falls from over 250 µM to 49 µM. The second binds more tightly here.

`Cc1cccc(-c2n[nH]c(=S)n2-c2ccc3c(Cl)c(C(=O)O)sc3c2)c1` and `Cc1ccc(-c2n[nH]c(=S)n2-c2ccc3c(Cl)c(C(=O)O)sc3c2)cc1` are within 1.5-fold of each other in Kd: 83 µM for the first, 92 µM for the second.

Going from `O=C(O)c1sc2cc(-n3c(S)nnc3-c3ccc(Br)c(Cl)c3)ccc2c1Cl` to `Cc1cc(-c2nnc(S)n2-c2ccc3c(Cl)c(C(=O)O)sc3c2)ccc1Br`, the Kd rises from 11 µM to 31 µM (2.8-fold). The first binds more tightly here.

Compared with `Cc1ccccc1-c1nnc(S)n1-c1ccc2c(Cl)c(C(=O)O)sc2c1`, `O=C(O)c1sc2cc(-n3c(S)nnc3-c3ccccc3)ccc2c1Cl` is 2-fold higher in Kd: 66 µM for the first, 130 µM for the second. The first binds more tightly here.

`O=C(O)c1sc2cc(-n3c(S)nnc3-c3cccc(Br)c3)ccc2c1Cl` and `O=C(O)c1sc2cc(-n3c(S)nnc3-c3ccc(Br)cc3)ccc2c1Cl` are within 1.5-fold of each other in Kd: 58 µM for the first, 42 µM for the second.

`O=C(O)c1sc2cc(-n3c(S)nnc3-c3ccc(F)cc3)ccc2c1Cl` and `O=C(O)c1sc2cc(-n3c(S)nnc3-c3ccc(Cl)cc3)ccc2c1Cl` are within 1.5-fold of each other in Kd: 47 µM for the first, 52 µM for the second.

Going from `Nc1ccc(-c2nnc(SCC(=O)O)n2-c2ccc(Cl)c(Cl)c2)cc1` to `O=C(O)CSc1nnc(-c2ccc(O)cc2)n1-c1ccc(Cl)c(Cl)c1`, the Kd rises from 109 µM to 233 µM (2.1-fold). The first binds more tightly here.

`O=C(O)CSc1nnc(-c2ccccc2Cl)n1-c1cccc(Cl)c1` and `O=C(O)CSc1nnc(-c2ccccc2Br)n1-c1cccc(Cl)c1` cannot be ordered by Kd: over 250 µM for the first, over 250 µM for the second.

Compared with `Cc1cccc(-c2n[nH]c(=S)n2-c2ccc3c(Cl)c(C(=O)O)sc3c2)c1Br`, `O=C(O)c1sc2cc(-n3c(-c4ccc(Cl)c(Br)c4)n[nH]c3=S)ccc2c1Cl` is 3-fold lower in Kd: 48 µM for the first, 16 µM for the second. The second binds more tightly here.

Going from `O=C(O)c1cc2ccc(-n3c(-c4cccc(Oc5ccccc5)c4)n[nH]c3=S)cc2s1` to `O=C(O)c1sc2cc(-n3c(-c4cccc(Oc5ccccc5)c4)n[nH]c3=S)ccc2c1Cl`, the Kd falls from 104 µM to 63 µM (1.7-fold). The second binds more tightly here.

`COc1ccc(-c2nnc(SCC(=O)O)n2-c2cccc(Cl)c2)cc1` and `O=C(O)CSc1nnc(-c2ccc(F)cc2)n1-c1cccc(Cl)c1` cannot be ordered by Kd: over 250 µM for the first, over 250 µM for the second.

`Cc1ccccc1-c1nnc(S)n1-c1ccc2cc(C(=O)O)sc2c1` and `O=C(O)c1cc2ccc(-n3c(S)nnc3-c3ccccc3)cc2s1` cannot be ordered by Kd: over 250 µM for the first, over 250 µM for the second.

`COc1ccc(-c2nnc(SCC(=O)O)n2-c2ccc(Cl)cc2)cc1` and `O=C(O)CSc1nnc(-c2ccc(F)cc2)n1-c1ccc(Cl)cc1` cannot be ordered by Kd: over 250 µM for the first, over 250 µM for the second.

Going from `Cc1ccc2c(Cl)c(-c3nnc(SCC(=O)O)n3-c3ccc(Cl)c(Cl)c3)sc2c1` to `O=C(O)CSc1nnc(-c2sc3ccccc3c2Cl)n1-c1ccc(Cl)c(Cl)c1`, the Kd rises from 18 µM to 46 µM (2.6-fold).

Compared with `O=C(O)c1cc2ccc(-n3c(-c4cc(Cl)cc(Cl)c4)n[nH]c3=S)cc2s1`, `O=C(O)c1sc2cc(-n3c(-c4cc(Cl)cc(Cl)c4)n[nH]c3=S)ccc2c1Cl` is 2.3-fold lower in Kd: 35 µM for the first, 15 µM for the second. The second binds more tightly here.

Going from `O=C(O)c1sc2cc(-n3c(S)nnc3-c3ccc(Cl)c(Cl)c3)ccc2c1Cl` to `O=C(O)c1cc2ccc(-n3c(S)nnc3-c3ccc(Cl)c(Cl)c3)cc2s1`, the Kd rises from 11 µM to 22 µM (2-fold).

`O=C(O)CSc1nnc(-c2ccc3ccccc3c2)n1-c1ccc(Cl)c(Cl)c1` and `O=C(O)CSc1nnc(-c2cc3ccccc3s2)n1-c1ccc(Cl)c(Cl)c1` are within 1.5-fold of each other in Kd: 47 µM for the first, 58 µM for the second.

First: Cc1ccc(-c2nnc(S)n2-c2ccc3cc(C(=O)O)sc3c2)cc1
Second: O=C(O)c1cc2ccc(-n3c(S)nnc3-c3ccc(Cl)cc3)cc2s1
The Kd of the first is higher: over 250 µM for the first, 78 µM for the second. The second binds more tightly here.

First: Clc1ccc(-c2nn[nH]n2)cc1
Second: COc1ccc(-c2nnc(SCC(=O)O)n2-c2ccc(Cl)c(Cl)c2)cc1
The Kd of the first is 11-fold higher: 1850 µM for the first, 164 µM for the second.

Compared with `Cc1ccccc1-c1nnc(SCC(=O)O)n1-c1cccc(Cl)c1`, `O=C(O)CSc1nnc(-c2sc3ccccc3c2Cl)n1-c1ccccc1` is lower in Kd: over 250 µM for the first, 135 µM for the second. The second binds more tightly here.

Compared with `O=C(O)CSc1nnc(-c2ccc([N+](=O)[O-])cc2)n1-c1ccc(Cl)c(Cl)c1`, `O=C(O)c1cc2ccc(-n3c(S)nnc3-c3ccc(Br)c(Cl)c3)cc2s1` is 15-fold lower in Kd: 178 µM for the first, 12 µM for the second.

First: O=C(O)c1sc2cc(-n3c(-c4ccc5ccccc5c4)n[nH]c3=S)ccc2c1Cl
Second: O=C(O)c1cc2ccc(-n3c(-c4ccc(Br)cc4)n[nH]c3=S)cc2s1
The Kd of the first is 1.7-fold lower: 43 µM for the first, 71 µM for the second. The first binds more tightly here.

`O=C(O)c1cc2ccc(-n3c(-c4ccc(F)cc4)n[nH]c3=S)cc2s1` and `O=C(O)c1sc2cc(-n3c(S)nnc3-c3c[nH]c4ccccc34)ccc2c1Cl` cannot be ordered by Kd: over 250 µM for the first, over 250 µM for the second.

Compared with `O=C(O)c1sc2cc(-n3c(S)nnc3C3CCCCC3)ccc2c1Cl`, `O=C(O)c1sc2cc(Cl)ccc2c1Cl` is 25-fold higher in Kd: 25 µM for the first, 627 µM for the second.

system: not listed separately; assay: Inhibition of human RPA binding to [32P]-ssDNA overexpressed in Escherichia coli by EMSA

For `CCOc1ccc2cc(C3CN(C(=O)CCC(=O)O)N=C3c3ccc(Br)cc3)c(Cl)nc2c1` (centres undefined), the IC50 was 40 µM.
